Measurements taken from PMC6342617 (Cancer chemotherapy and pharmacology, 2018).

Experiments:
cytochrome P450 enzymes = settings: ref Hycamtin® prescribing information; cited from earlier work
[1] = Tivantinib steady-state plasma pharmacokinetics; format: in vivo, human
germ cell tumors = settings: patients with germ cell tumors; cited from earlier work
[2] = phase I dose escalation study; cited from earlier work
[3] = tested on: substrates of CYP1A, CYP2C9, CYP2C19, CYP3A4 or P-glycoprotein; settings: cited from earlier work
[4] = tested on: triple-negative breast cancer; settings: patients with triple-negative breast cancer; cited from earlier work
hepatocellular carcinoma = settings: patients with hepatocellular carcinoma; cited from earlier work
gastric cancer = settings: patients with gastric cancer; cited from earlier work

CC[C@@]1(O)C(=O)OCc2c1cc1n(c2=O)Cc2cc3c(CN(C)C)c(O)ccc3nc2-1 [topotecan]
Induction or inhibition of cytochrome P450 enzymes (cytochrome P450 enzymes): has not been shown to induce or inhibit cytochrome P450 enzymes

O=C1NC(=O)[C@@H](c2cn3c4c(cccc24)CCC3)[C@@H]1c1c[nH]c2ccccc12 [tivantinib]
AUC0–8 hr ([1]; Dose Level 1 (tivantinib 240 mg), n=1): 7,243 ng × hr/ml | Clsys (oral clearance), range of observed values ([1]; Dose Levels −1 and A1 (tivantinib 120 mg), n=11): 2.4 to 44.5 L/h | AUC(0-t) ([1]; human, plasma, oral, AUC0–12 hr, median, All Dose Levels, n=12): 10500 ng·h/mL | Responses, monotherapy (germ cell tumors): No responses were seen | Maximum tolerated dose, single agent [2]: no maximum tolerated dose was identified | Interaction with substrates of CYP1A, CYP2C9, CYP2C19, CYP3A4 or P-glycoprotein [3]: has not been shown to have a significant interaction | Response rate, monotherapy [4]: 5% | Responses, monotherapy (hepatocellular carcinoma): No responses were seen | Responses, monotherapy (gastric cancer): No responses were seen
